Values after ≈ are worked out from the molar mass of the structure shown. Active and inactive are the calls of the source. The calls are words filed in the database; no cut-off is given here.
What was measured:
[1] = molecular target: Free fatty acid receptor 1 (Homo sapiens, UniProt O14842); experiment: Agonist activity at N-terminal FLAG tagged human FFAR1 transfected in African green monkey COS-7 cells assessed as accumulation of inositol phosphate incubated for 90 mins by TopCount NXT counter based analysis; type: cell-based
Chain of Free fatty acid receptor 1 (O14842 whole entry): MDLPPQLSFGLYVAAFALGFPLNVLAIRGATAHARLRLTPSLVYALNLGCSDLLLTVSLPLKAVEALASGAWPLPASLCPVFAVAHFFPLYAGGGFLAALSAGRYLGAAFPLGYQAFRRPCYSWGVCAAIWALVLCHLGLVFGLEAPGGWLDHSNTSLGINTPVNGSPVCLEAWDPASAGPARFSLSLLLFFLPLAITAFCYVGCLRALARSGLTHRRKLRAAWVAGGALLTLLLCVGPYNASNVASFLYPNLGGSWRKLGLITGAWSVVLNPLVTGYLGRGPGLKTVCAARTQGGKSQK

[2] = Metabolic stability in CD-1 mouse liver S9 fraction assessed as half-life at 2 uM measured upto 40 mins in the presence of NADPH by HPLC-MS analysis; type: ADME, subcellular; conditions: s9, 40 min
[3] = Lipophilicity, logD of the compound; type: physicochemical; conditions: octanol/water
[4] = Solubility of the compound in PBS buffer at pH 7.4; type: physicochemical
[5] = test system: Free fatty acid receptor 1 (Homo sapiens), O14842 [K259A]; experiment: Agonist activity at N-terminal FLAG tagged human FFAR1 K259A mutant transfected in African green monkey COS-7 cells assessed as accumulation of inositol phosphate by measuring change in efficacy incubated for 90 mins by TopCount NXT counter based analysis relative to control; type: cell-based
Chain of Free fatty acid receptor 1 (Homo sapiens), O14842 [K259A] (O14842 whole entry K259A): as the sequence (O14842 whole entry) above, with K259A counted along it

[6] = test system: Free fatty acid receptor 1 (Homo sapiens), O14842 [A83F]; experiment: Agonist activity at N-terminal FLAG tagged human FFAR1 A83F mutant transfected in African green monkey COS-7 cells assessed as accumulation of inositol phosphate incubated for 90 mins by TopCount NXT counter based analysis; type: cell-based; conditions: filed as agonist
Chain of Free fatty acid receptor 1 (Homo sapiens), O14842 [A83F] (O14842 whole entry A83F): as the sequence (O14842 whole entry) above, with A83F counted along it

[7] = test system: Free fatty acid receptor 1 (Homo sapiens), O14842 [L262W]; experiment: Agonist activity at N-terminal FLAG tagged human FFAR1 L262W mutant transfected in African green monkey COS-7 cells assessed as accumulation of inositol phosphate by measuring change in efficacy incubated for 90 mins by TopCount NXT counter based analysis relative to control; type: cell-based
Chain of Free fatty acid receptor 1 (Homo sapiens), O14842 [L262W] (O14842 whole entry L262W): as the sequence (O14842 whole entry) above, with L262W counted along it

[8] = molecular target: T1, Free fatty acid receptor 4 (Homo sapiens) (UniProt Q5NUL3); experiment: Agonist activity at N-terminal FLAG tagged human FFAR4 transfected in African green monkey COS-7 cells assessed as accumulation of inositol phosphate at 10 uM incubated for 90 mins by TopCount NXT counter based analysis relative to control; type: cell-based
T1 sequence (whole entry): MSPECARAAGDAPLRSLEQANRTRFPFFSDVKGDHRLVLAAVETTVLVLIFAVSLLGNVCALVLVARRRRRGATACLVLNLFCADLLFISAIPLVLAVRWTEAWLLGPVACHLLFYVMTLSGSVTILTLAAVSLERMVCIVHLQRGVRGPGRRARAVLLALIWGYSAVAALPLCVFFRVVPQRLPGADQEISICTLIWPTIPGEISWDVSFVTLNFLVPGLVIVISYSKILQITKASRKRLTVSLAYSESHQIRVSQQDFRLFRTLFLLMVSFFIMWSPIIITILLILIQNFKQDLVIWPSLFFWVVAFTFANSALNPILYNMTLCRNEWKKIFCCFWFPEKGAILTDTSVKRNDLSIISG

[9] = molecular target: T2, Free fatty acid receptor 4 (Homo sapiens, UniProt Q5NUL3); experiment: Agonist activity at N-terminal FLAG tagged human FFAR4 transfected in African green monkey COS-7 cells assessed as accumulation of inositol phosphate incubated for 90 mins by TopCount NXT counter based analysis; type: cell-based
T2 sequence (Q5NUL3 whole entry): T1 sequence (whole entry)

[10] = test system: Free fatty acid receptor 1 (Homo sapiens), O14842 [A83F]; experiment: Agonist activity at N-terminal FLAG tagged human FFAR1 A83F mutant transfected in African green monkey COS-7 cells assessed as accumulation of inositol phosphate by measuring fold change in potency incubated for 90 mins by TopCount NXT counter based analysis; type: cell-based; conditions: filed as agonist
COS-7 [11] = experiment: Agonist activity at N-terminal FLAG tagged human FFAR1 L262 mutant transfected in African green monkey COS-7 cells assessed as accumulation of inositol phosphate incubated for 90 mins by TopCount NXT counter based analysis; type: cell-based
COS-7 [12] = experiment: Agonist activity at N-terminal FLAG tagged human FFAR1 K259 mutant transfected in African green monkey COS-7 cells assessed as accumulation of inositol phosphate incubated for 90 mins by TopCount NXT counter based analysis; type: cell-based
COS-7 [13] = experiment: Agonist activity at N-terminal FLAG tagged human FFAR1 A66 mutant transfected in African green monkey COS-7 cells assessed as accumulation of inositol phosphate incubated for 90 mins by TopCount NXT counter based analysis; type: cell-based
[14] = test system: Free fatty acid receptor 1 (Homo sapiens), O14842 [S8A]; experiment: Agonist activity at N-terminal FLAG tagged human FFAR1 S8A mutant transfected in African green monkey COS-7 cells assessed as accumulation of inositol phosphate by measuring decrease in efficacy incubated for 90 mins by TopCount NXT counter based analysis relative to control; type: cell-based
Chain of Free fatty acid receptor 1 (Homo sapiens), O14842 [S8A] (O14842 whole entry S8A): as the sequence (O14842 whole entry) above, with S8A counted along it

COS-7 [15] = experiment: Agonist activity at N-terminal FLAG tagged human FFAR1 Y12 mutant transfected in African green monkey COS-7 cells assessed as accumulation of inositol phosphate incubated for 90 mins by TopCount NXT counter based analysis; type: cell-based
COS-7 [16] = experiment: Agonist activity at N-terminal FLAG tagged human FFAR1 E65 mutant transfected in African green monkey COS-7 cells assessed as accumulation of inositol phosphate incubated for 90 mins by TopCount NXT counter based analysis; type: cell-based
[17] = test system: Free fatty acid receptor 1 (Homo sapiens), O14842 [S8A]; experiment: Agonist activity at N-terminal FLAG tagged human FFAR1 S8A mutant transfected in African green monkey COS-7 cells assessed as accumulation of inositol phosphate by measuring fold decrease in potency incubated for 90 mins by TopCount NXT counter based analysis; type: cell-based; conditions: filed as agonist

Structure (SMILES)	EC50 [1] [nM]	t1/2 [2] [min]	logD [3]	solubility kinetic [4] [µM]	Emax [8] [%]	EC50 [9] [nM]	Emax ([8]; filed as agonist) [%]	further results
Cc1cc(OCc2nc(N)nc(NC3(Cc4cccc(Cl)c4)CC3)n2)cc(N2CCCC2=O)c1	61	0.7	3.82	23 (≈ 11 µg/mL)	–	–	–	–
COc1ccc(F)c(-c2ccc(COc3ccc4c(c3)[C@]3(CC4)C[C@H]3C(=O)O)cc2[C@@H]2CCCC2(C)C)c1	–	–	–	–	–	–	–	Efficacy [5]: -25%; Activity [6]: Active; Efficacy [7]: -25%
Cc1cc(OCc2nc(N)nc(NCCC3CCCCC3(F)F)n2)cc(N2CCCC2=O)c1 (configuration not stated)	–	0.8	3.53	55 (≈ 25.3 µg/mL)	–	–	–	–
COC(CNc1nc(N)nc(COc2cc(C)cc(N3CCCC3=O)c2)n1)c1cccc(Cl)c1 (configuration not stated)	15	2	3.52	36 (≈ 17.4 µg/mL)	32	12	–	–
Cc1cc(OCc2nc(N)nc(NCCc3ccccc3N3CCOCC3)n2)cc(N2CCCC2=O)c1	–	0.9	2.93	119 (≈ 59.9 µg/mL)	30	81	–	–
Cc1cc(OCc2nc(N)nc(NCC(C)c3cccc(Cl)c3)n2)cc(N2CCCC2=O)c1 (configuration not stated)	6	0.8	3.93	14 (≈ 6.54 µg/mL)	33	10	–	–
Cc1cc(OCc2nc(N)nc(NCCc3cccc(F)c3)n2)cc(N2CCCC2=O)c1	50	1.1	3.32	84 (≈ 36.7 µg/mL)	35	29	–	–
Cc1cc(OCc2nc(N)nc(NCCc3cccc(Cl)c3)n2)cc(N2CCCC2=O)c1	3	2.3	3.77	11 (≈ 4.98 µg/mL)	–	6	43	–
Cc1ccc(Nc2nc(N)nc(COc3ccc4c(C)cc(=O)oc4c3)n2)cc1Cl	140	–	–	< 2	–	150	45	–
Cc1cc(OCc2nc(N)nc(NCCc3cccc4c3OC(F)(F)O4)n2)cc(N2CCCC2=O)c1	–	0.8	3.42	13 (≈ 6.48 µg/mL)	–	–	–	–
Cc1cc(OCc2nc(N)nc(NCCc3ccc(C)c(Cl)c3)n2)cc(N2CCCC2=O)c1	7	–	–	–	32	8	–	–
Cc1cc(OCc2nc(N)nc(NCCc3cc(Cl)ccc3Cl)n2)cc(N2CCCC2=O)c1	1	1.9	3.46	19 (≈ 9.26 µg/mL)	30	2	–	fold change (FC) [10]: 2; Activity (COS-7 [11]): inactive; Activity (COS-7 [12]): inactive; Activity (COS-7 [13]): inactive; Efficacy [14]: 35%; Activity (COS-7 [15]): inactive; Activity (COS-7 [16]): inactive; fold change (FC) [17]: 10
Cc1cc(=O)oc2cc(OCc3nc(N)nc(Nc4ccc(C(C)C)cc4)n3)ccc12	460	–	–	–	–	1200	75	–
Cc1cc(OCc2nc(N)nc(NCCc3ccccc3OC(F)(F)F)n2)cc(N2CCCC2=O)c1	20	–	–	–	29	37	–	–
Cc1cc(OCc2nc(N)nc(NCCc3cccc(C(F)(F)F)c3)n2)cc(N2CCCC2=O)c1	12	–	–	–	35	10	–	–
Cc1ccc(Nc2nc(N)nc(COc3ccc4c(C)cc(=O)oc4c3)n2)cc1	1790	–	–	–	39	1210	–	–
Cc1ccc(Nc2nc(N)nc(COc3cccc(N4CCCC4=O)c3)n2)cc1Cl	820	–	–	28 (≈ 11.9 µg/mL)	–	590	50	–
Cc1ccc(Nc2nc(N)nc(COc3cccc(N4CCCC4=O)c3C)n2)cc1Cl	11100	–	–	–	–	14400	46	–
Cc1c(Cl)cc(Nc2nc(N)nc(COc3ccc4c(C)cc(=O)oc4c3)n2)cc1Cl	600	–	–	–	–	1270	68	–
Cc1cc(OCc2nc(N)nc(NCC(c3cccc(Cl)c3)N3CCCC3)n2)cc(N2CCCC2=O)c1 (configuration not stated)	610	3	2.79	294 (≈ 153 µg/mL)	–	–	–	–
Cc1cc(OCc2nc(N)nc(NCCc3cccc(OC(F)F)c3)n2)cc(N2CCCC2=O)c1	5	–	–	–	28	10	–	–
Cc1cc(OCCCS(C)(=O)=O)cc(C)c1-c1cccc(COc2ccc3c(c2)OC[C@H]3CC(=O)O)c1	–	–	–	–	–	–	–	fold change (FC) [10]: 500
COc1cccc(CCNc2nc(N)nc(COc3cc(C)cc(N4CCCC4=O)c3)n2)c1	12	–	–	–	–	14	46	–
Cc1cc(OCc2nc(N)nc(NCCc3ccccc3Cl)n2)cc(N2CCCC2=O)c1	6	–	–	–	33	3	–	–
Cc1ccc(Nc2nc(N)nc(COc3ccc4ccc(=O)oc4c3)n2)cc1	1280	–	–	–	–	4390	49	–
